We go through one compound from article PMC7468568 (Nature chemical biology, 2020).

Broadly, the logD is lipophilicity at a set pH, counting ionised and neutral species.

The nature of data set [1]: Plasma protein binding, human. Particulars: equilibrium dialysis. Format: in vitro ADME. (In equilibrium dialysis only unbound substance equilibrates across the membrane.)
The target of data set [2] is T1, PLA2G4E (Homo sapiens, UniProt Q3MJ16).
T1 sequence (Q3MJ16 1-868): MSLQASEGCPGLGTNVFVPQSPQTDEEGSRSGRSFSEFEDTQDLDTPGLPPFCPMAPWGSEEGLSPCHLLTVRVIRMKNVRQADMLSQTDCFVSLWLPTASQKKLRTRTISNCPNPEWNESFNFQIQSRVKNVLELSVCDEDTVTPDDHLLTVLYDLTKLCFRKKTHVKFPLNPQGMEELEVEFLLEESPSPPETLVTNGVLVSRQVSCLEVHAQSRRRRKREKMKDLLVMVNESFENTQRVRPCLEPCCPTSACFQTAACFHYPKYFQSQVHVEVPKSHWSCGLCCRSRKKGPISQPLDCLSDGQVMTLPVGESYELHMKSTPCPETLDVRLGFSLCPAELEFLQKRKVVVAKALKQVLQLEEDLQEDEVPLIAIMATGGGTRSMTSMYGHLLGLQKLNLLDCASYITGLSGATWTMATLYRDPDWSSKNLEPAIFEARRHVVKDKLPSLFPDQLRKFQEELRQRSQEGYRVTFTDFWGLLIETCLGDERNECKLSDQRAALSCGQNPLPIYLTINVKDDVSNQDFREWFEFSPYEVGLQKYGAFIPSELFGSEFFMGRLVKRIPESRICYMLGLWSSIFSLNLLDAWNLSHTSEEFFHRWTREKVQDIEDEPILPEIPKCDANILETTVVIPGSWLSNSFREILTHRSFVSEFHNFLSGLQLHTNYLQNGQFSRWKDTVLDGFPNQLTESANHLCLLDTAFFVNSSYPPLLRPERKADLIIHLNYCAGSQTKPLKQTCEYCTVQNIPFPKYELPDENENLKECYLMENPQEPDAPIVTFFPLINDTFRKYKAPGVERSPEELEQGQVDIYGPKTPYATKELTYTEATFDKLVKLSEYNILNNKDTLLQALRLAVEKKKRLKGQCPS
Put plainly: Gel-based ABPP, hPLA2G4E overexpressing membrane lysate. It is filed as biochemical. Particulars: at 10 μM.

Data set [3] deals with Neuro-2a cells. The data set is described as follows: Targeted lipidomics in Neuro-2a cells. It is filed as cell-based, mouse. To be noted: 10 μM, 2 h.
In data set [4] the target is T2, NAPE-PLD (Mus musculus, UniProt Q8BH82).
T2 sequence (Q8BH82 1-396): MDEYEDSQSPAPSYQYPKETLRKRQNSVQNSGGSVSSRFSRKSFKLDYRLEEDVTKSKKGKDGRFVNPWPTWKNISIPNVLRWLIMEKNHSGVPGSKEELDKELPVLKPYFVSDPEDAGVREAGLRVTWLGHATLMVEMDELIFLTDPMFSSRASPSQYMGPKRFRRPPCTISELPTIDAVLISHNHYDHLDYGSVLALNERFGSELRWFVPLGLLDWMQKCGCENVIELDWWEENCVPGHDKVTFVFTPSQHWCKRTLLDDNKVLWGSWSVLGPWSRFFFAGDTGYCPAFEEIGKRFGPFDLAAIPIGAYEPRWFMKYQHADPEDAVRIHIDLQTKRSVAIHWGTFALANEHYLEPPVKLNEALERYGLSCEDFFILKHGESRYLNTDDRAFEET
Put plainly: LC-MS-based endogenous NAPE-PLD activity assay. It is filed as biochemical.

Data set [5] has as its target cannabinoid CB1 receptor (Homo sapiens, UniProt P21554). The data set is described as follows: [3H]CP55940 radioligand displacement assay CB1. To be noted: at 10 μM. Format: binding.
Data set [6] concerns brain NAE levels. Put plainly: Lipid measurements in mouse brain. It is filed as in vivo.
Data set [7] has as its target mouse PGP-transporter (Mus musculus, UniProt P21447). The data set is described as follows: P-glycoprotein active efflux assay, mouse. It is filed as in vitro ADME.
Data set [8] has as its system c-Fos protein expression in the paraventricular nucleus (PVN). Put plainly: HPA axis activation: c-Fos labeling in the PVN. It is filed as in vivo, mouse. To be noted: C57BL/6J mice; 30 mg kg^−1 i.p. single dose; 210 min before perfusion; P< 0.0001.
The target of data set [9] is protein targets of photoprobe 10 in hNAPE-PLD-FLAG-transfected HEK293T cells (Homo sapiens, UniProt Q6IQ20). The data set is described as follows: Chemical proteomics-based photoaffinity labeling. It is filed as cell-based. Particulars: photoprobe 10 2 μM versus LEI-401 20 μM.
Data set [10] in a line: Plasma protein binding, mouse. It is filed as in vitro ADME. To be noted: equilibrium dialysis.
Data set [11] concerns DAGLα. Put plainly: Natural substrate-based fluorescence assay DAGLα. Format: biochemical, human and mouse.
In data set [12] the test system is DAGLα/β, MAGL and ABHD6. The data set is described as follows: In vitro ABPP of brain of LEI-401-treated mice. Format: in vivo, mouse. To be noted: male C57BL/6J mice; 30 mg kg^−1 i.p.; 2 h; ABPP of brain membrane lysate.
Data set [13] can be described thus: logD-assay. It is filed as physicochemical. Particulars: octanol/water.
[14] abbreviates: WT littermates of NAPE-PLD KO animals, mixed 129SvJ-C57BL/6 background.

SMILES strings stand for the structures.

Sequence of protein targets of photoprobe 10 in hNAPE-PLD-FLAG-transfected HEK293T cells (Q6IQ20 whole entry): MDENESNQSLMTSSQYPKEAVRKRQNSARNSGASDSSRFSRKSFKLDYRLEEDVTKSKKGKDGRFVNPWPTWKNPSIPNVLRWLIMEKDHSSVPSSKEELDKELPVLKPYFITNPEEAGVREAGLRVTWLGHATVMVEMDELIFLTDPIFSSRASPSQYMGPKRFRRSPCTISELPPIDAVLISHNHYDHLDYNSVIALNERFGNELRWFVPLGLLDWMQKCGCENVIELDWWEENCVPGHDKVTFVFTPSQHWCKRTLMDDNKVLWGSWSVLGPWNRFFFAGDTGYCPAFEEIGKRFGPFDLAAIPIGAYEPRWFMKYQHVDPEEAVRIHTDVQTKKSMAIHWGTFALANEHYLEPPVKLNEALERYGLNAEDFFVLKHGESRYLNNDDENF
Sequence of mouse PGP-transporter (P21447 whole entry, the tested form may be a part): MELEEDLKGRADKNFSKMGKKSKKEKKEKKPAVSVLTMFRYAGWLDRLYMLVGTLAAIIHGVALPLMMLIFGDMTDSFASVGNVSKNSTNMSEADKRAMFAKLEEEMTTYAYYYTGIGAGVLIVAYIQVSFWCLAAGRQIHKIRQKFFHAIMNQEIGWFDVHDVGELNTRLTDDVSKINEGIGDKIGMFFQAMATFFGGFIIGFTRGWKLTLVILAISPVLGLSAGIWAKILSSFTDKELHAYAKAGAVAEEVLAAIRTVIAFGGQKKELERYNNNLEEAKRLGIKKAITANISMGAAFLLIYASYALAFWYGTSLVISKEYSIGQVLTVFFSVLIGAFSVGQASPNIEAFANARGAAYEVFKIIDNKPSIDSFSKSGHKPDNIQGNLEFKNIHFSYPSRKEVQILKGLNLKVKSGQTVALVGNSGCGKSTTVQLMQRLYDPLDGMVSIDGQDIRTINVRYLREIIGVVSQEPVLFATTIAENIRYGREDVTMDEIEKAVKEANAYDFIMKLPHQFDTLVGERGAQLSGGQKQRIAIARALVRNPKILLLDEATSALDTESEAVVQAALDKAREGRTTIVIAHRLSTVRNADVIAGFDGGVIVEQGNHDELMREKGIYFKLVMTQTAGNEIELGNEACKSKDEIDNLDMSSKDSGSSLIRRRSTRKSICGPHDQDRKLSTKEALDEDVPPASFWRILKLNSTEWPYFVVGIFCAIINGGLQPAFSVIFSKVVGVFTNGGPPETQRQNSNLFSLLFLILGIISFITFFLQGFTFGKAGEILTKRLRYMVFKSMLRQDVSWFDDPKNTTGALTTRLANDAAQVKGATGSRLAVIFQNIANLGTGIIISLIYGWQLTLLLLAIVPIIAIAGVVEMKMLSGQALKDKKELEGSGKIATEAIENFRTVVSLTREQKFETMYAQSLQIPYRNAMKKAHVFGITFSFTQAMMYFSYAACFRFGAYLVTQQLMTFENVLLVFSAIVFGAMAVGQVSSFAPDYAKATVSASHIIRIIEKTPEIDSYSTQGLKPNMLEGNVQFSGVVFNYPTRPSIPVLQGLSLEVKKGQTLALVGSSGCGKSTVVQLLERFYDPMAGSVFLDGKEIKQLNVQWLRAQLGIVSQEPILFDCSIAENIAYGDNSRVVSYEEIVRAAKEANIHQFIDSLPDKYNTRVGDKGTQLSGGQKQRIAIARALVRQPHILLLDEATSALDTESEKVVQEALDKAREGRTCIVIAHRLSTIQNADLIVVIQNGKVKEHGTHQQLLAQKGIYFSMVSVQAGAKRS
Sequence of cannabinoid CB1 receptor (P21554 whole entry): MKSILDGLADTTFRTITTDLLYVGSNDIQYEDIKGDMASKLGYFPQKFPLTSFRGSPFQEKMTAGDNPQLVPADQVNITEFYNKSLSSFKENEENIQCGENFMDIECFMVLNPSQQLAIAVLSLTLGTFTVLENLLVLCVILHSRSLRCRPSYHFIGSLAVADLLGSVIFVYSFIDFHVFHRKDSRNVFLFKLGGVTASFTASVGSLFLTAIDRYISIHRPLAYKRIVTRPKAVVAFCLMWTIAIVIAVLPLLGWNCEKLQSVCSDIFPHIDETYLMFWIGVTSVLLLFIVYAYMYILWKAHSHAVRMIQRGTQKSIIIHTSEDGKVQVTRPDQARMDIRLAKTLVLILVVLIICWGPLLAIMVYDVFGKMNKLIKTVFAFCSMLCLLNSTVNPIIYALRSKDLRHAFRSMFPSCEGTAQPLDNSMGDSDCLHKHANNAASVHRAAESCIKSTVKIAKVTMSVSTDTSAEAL

In data set [1], `O=C(NCC1CC1)c1cc(N2CC[C@H](O)C2)nc(N2CCC[C@@H](c3ccccc3)C2)n1` [LEI-401] returned a human protein binding greater than 99.8%. For the same compound, the “inhibitory activity, PLA2G4E” value in [2] is “No inhibitory activities”. Further, in [3] (Neuro-2a NAPE-PLD KO cells), the anandamide level result was “not in NAPE-PLD KO cells”. Also, in data set [3] (Neuro-2a WT cells), the anandamide level entry is “twofold reduction”; the “other saturated, mono- and (ω−6)-polyunsaturated NAE levels” value was “twofold decrease”. Moreover, in data set [3] (Neuro-2a cells), the “(ω−3)-polyunsaturated EPEA and DHEA levels” value was “did not respond”. For the same compound, the “C17:0-NAE formation from C17:0-NAPE” value in data set [4] (brain homogenates of NAPE-PLD KO mice) is listed as “not from KO mice”. In addition, the “C17:0-NAE formation from C17:0-NAPE” value in data set [4] (brain homogenates of WT mice) is listed as “reduced C17:0-NAE formation”. In data set [5], the “inhibitory activity, cannabinoid receptor type 1” value was “No inhibitory activities”. Besides, the “brain 2-AG levels” value in data set [6] (C57BL/6J mice, 30 mg kg^−1 i.p.) is “not significantly affected”. In data set [6] (C57BL/6J mice, 30 mg kg^−1 i.p., 2 h), the “brain anandamide level, dose response” value is recorded as “significantly reduced anandamide”. The “brain NAE levels in NAPE-PLD KO mice” value in [6] (NAPE-PLD KO mice, mixed 129SvJ-C57BL/6 background) is recorded as “did not reduce”. Moreover, the “brain AA levels at high dose” value in data set [6] (WT and NAPE-PLD KO mice (both genotypes), 60 mg kg^−1) is “decreased”. Further, in [6] (WT and NAPE-PLD KO mice, compared to vehicle), the “brain NAPE and pNAPE species” value is “No change”. For the same compound, in [6] (setting [14]), the “brain PEA and OEA levels in WT littermates” value is listed as “significantly reduced”; the “brain anandamide levels in WT littermates” value was “not decreased”. Moreover, the “brain anandamide level, time course” value in [6] (male C57BL/6J mice, 30 mg kg^−1 i.p. single dose, 1, 2, 4, 8 h, significant at 2 h, vehicle level by 4 h) was “significant and time-dependent reduction”. Moreover, in data set [7], the “efflux ratio, mouse PGP-transporter” value was determined as 1.8. In data set [8], the “c-Fos protein expression in PVN” value is “elevated c-Fos protein expression”. Also, the “competition of NAPE-PLD labeling by probe 10” value in data set [9] is given as “labeling could be prevented”. In addition, the mouse protein binding in [10] is reported as greater than 99.8%. The “inhibition of DAGLα” value in data set [11] is reported as “did not inhibit”. Moreover, in [12], the “activity of DAGLα/β, MAGL and ABHD6 in the brain” value is “not affected”. The logD in data set [13] is recorded as 3.3.
